Source: US6946458B2, “N-thiolated beta-lactams: novel antibacterial agents for methicillin-resistant Staphylococcus aureus” (University of South Florida, priority 1999, dated 2005)

Legend:
Assay in all cases: Kirby-Bauer agar disk diffusion
Details in all cases: Table 3, 6-mm disks, 20 μg test compound, 24 hours
[1] = tested on: Staphylococcus epidermidis; assay type: cell-based
Experimental: (§1) In this study, a selection of N-methylthio-substituted β-lactams are examined for antimicrobial activity by the Kirby-Bauer disk diffusion method on agar plates. A variety of common Gram-positive and Gram-negative bacteria are tested, including clinical isolates of methicillin-resistant Staphylococcus aureus (MRSA).
(§2) Compound susceptibility measurements are obtained from agar disk diffusion experiments using 6-mm air-dried disks impregnated with 20 μg of the test compound. The values correspond to the average diameters in mm (triplicate experiments) for the zone of growth inhibition observed after 24 h. Staphylococcus aureus (ATCC 25923) and β-lactamase-producing strains of methicillin-resistant Staphylococcus aureus (labeled as MRSA USF652-659) are obtained from Lakeland Regional Medical Center, Lakeland, Fla. Staphylococcus epidermidis, Staphylococcus simulans, Staphylococcus simulans, and Microcossus luteus are clinical isolates from University of South Florida Medical Clinic. Nieserria gonnorhoeae (β-lactamase positive) is obtained from the Tampa Branch State Laboratory. PenG is penicillin G (potassium salt). Table 1 provides the zones of growth inhibition that are observed after 24 hours using the lactams of FIGS. 1A-1I (designated A-I, respectively).
(§3) Of particular interest is the ability of these compounds to retain their effectiveness against penicillin-resistant strains of Staphylococcus aureus, a dangerous hospital-borne pathogen which is becoming difficult to treat with conventional antibiotic therapy. The lactams were screened for antibacterial activity by disk diffusion on agar plates, and the resulting zones of bacterial growth inhibition measured (see Table 3; each lactam is designated by Figure number).
(§4) Table 3: Growth inhibition zones obtained from agar disk diffusion experiments using 6-mm air-dried disks impregnated with 20 μg of the test compound. The values correspond to the average diameters in mm for the zone of growth inhibition observed after 24 hours. Staphylococcus aureus and β-lactamase-producing strains of methicillin-resistant Staphylococcus aureus (labeled MRSA USF652-659) are obtained from a clinical testing laboratory at Lakeland Regional Medical Center, Lakeland, Fla.

[2] = tested on: Staphylococcus aureus (ATCC 25923); assay type: cell-based
Experimental: as §1, §2, §3, §4

Micrococcus luteus = assay type: cell-based
Experimental: as §1, §2, §3, §4

S. simulans (ATCC 11631) = assay type: cell-based, Staphylococcus simulans
Experimental: as §1, §2, §3, §4

MRSA USF658 = assay type: cell-based, Staphylococcus aureus
Experimental: as §1, §2, §3, §4
(§5) Those compounds were tested for bioactivity using the Kirby-Bauer test on agar plates.
(§6) Biological activity is enhanced against β-lactamase producing strains of methicillin-resistant Staphylococcus aureus (MRSA). With the lactam shown in FIG. 11A serving as a lead structure, a series of other C-4 substituted derivatives (FIGS. 11B-11I) were investigated herein. Table 5 lists microbiological data for β-lactams from Kirby-Bauer Disc Diffusion Test Results (with each lactam identified by Figure number).
(§7) Scheme I summarizes the synthesis of ester compounds 4. 4-Carboxy benzaldehyde (1) is coupled with the appropriate alcohol using DCC/DMAP, followed by reaction with p-anisidine, to give imines 2. Staudinger coupling of methoxyacetyl chloride with imine 2 gives N-aryl protected β-lactam 3. N-Dearylation of β-lactam 3 with ceric ammonium nitrate and methylthiolation with N-(methylthio)phthalimide affords N-methylthio β-lactams 4. These compounds are tested for antibacterial activity by the Kirby-Bauer method of disc diffusion on agar plates. [drawing 7]

MRSA USF654 = assay type: cell-based, Staphylococcus aureus
Experimental: as §1, §2, §3, §4, §5, §6, §7

MRSA USF655 = assay type: cell-based, Staphylococcus aureus
Experimental: as §1, §2, §3, §4, §5, §6, §7

MRSA USF653 = assay type: cell-based, Staphylococcus aureus
Experimental: as §1, §2, §3, §4, §5, §6, §7

MRSA USF657 = assay type: cell-based, Staphylococcus aureus
Experimental: as §1, §2, §3, §4, §5, §6, §7

MRSA USF659 = assay type: cell-based, Staphylococcus aureus
Experimental: as §1, §2, §3, §4, §5, §6, §7

MRSA USF652 = assay type: cell-based, Staphylococcus aureus
Experimental: as §1, §2, §3, §4, §5, §6, §7

MRSA USF656 = assay type: cell-based, Staphylococcus aureus
Experimental: as §1, §2, §3, §4, §5, §6, §7

[3] = tested on: S. saprophyticus (ATCC 3552); assay type: cell-based, Staphylococcus saprophyticus
Experimental: as §1, §2, §3, §4

Row | Structure (SMILES) | zone of growth inhibition, average diameter [1] | zone of growth inhibition, average diameter [2] | zone of growth inhibition, average diameter (Micrococcus luteus) | zone of growth inhibition, average diameter (S. simulans (ATCC 11631)) | zone of growth inhibition, average diameter (MRSA USF658) | zone of growth inhibition, average diameter (MRSA USF654) | zone of growth inhibition, average diameter (MRSA USF655) | zone of growth inhibition, average diameter (MRSA USF653) | zone of growth inhibition, average diameter (MRSA USF657) | zone of growth inhibition, average diameter (MRSA USF659) | zone of growth inhibition, average diameter (MRSA USF652) | zone of growth inhibition, average diameter (MRSA USF656) | zone of growth inhibition, average diameter [3] | further results
1 | COC1C(=O)N(SC)C1C=Cc1ccccc1 (racemic) [FIG. 3A] | – | – | – | – | – | – | – | – | – | – | – | – | – | zone of growth inhibition, average diameter ([1]; listed as 3A): 12 mm; zone of growth inhibition, average diameter ([2]; listed as 3A): 10 mm; zone of growth inhibition, average diameter (Micrococcus luteus; listed as 3A): 11 mm; zone of growth inhibition, average diameter (S. simulans (ATCC 11631); listed as 3A): 9 mm; zone of growth inhibition, average diameter (MRSA USF658; listed as 3A): 10 mm; zone of growth inhibition, average diameter (MRSA USF654; listed as 3A): 12 mm; zone of growth inhibition, average diameter (MRSA USF655; listed as 3A): 12 mm; zone of growth inhibition, average diameter (MRSA USF653; listed as 3A): 18 mm; zone of growth inhibition, average diameter (MRSA USF657; listed as 3A): 11 mm; zone of growth inhibition, average diameter (MRSA USF659; listed as 3A): 10 mm; zone of growth inhibition, average diameter (MRSA USF652; listed as 3A): 10 mm; zone of growth inhibition, average diameter (MRSA USF656; listed as 3A): 13 mm; zone of growth inhibition, average diameter ([3]; listed as 3A): 14 mm
2 | CSN1C(=O)C(OC(C)=O)C1CCc1ccccc1 (racemic) [FIG. 3F] | 18 mm | 17 mm | 23 mm | 11 mm | 15 mm | 17 mm | 15 mm | 18 mm | 17 mm | 16 mm | 17 mm | 18 mm | 13 mm | –
3 | COC1C(=O)N(SC)C1C#Cc1ccccc1 (racemic) [FIG. 2B] | 30 mm | 27 mm | 28 mm | 19 mm | 27 mm | 27 mm | 27 mm | 29 mm | 28 mm | 24 mm | 29 mm | 30 mm | 23 mm | –
4 | CSN1C(=O)C(Oc2ccccc2)C1C=Cc1ccccc1 (racemic) [FIG. 3D] | 10 mm | 15 mm | 10 mm | 8 mm | 12 mm | 14 mm | 15 mm | 16 mm | 13 mm | 12 mm | 14 mm | 13 mm | 11 mm | –
5 | CSN1C(=O)C(Oc2ccccc2)C1CCc1ccccc1 (racemic) [FIG. 3G] | 12 mm | 14 mm | 17 mm | 8 mm | 12 mm | 13 mm | 11 mm | 12 mm | 12 mm | 12 mm | 14 mm | 13 mm | 10 mm | –
6 | CSN1C(=O)C(OC(C)=O)C1C=Cc1ccccc1 (racemic) [FIG. 3C] | 19 mm | 15 mm | 17 mm | 10 mm | 16 mm | 16 mm | 18 mm | 18 mm | 16 mm | 15 mm | 18 mm | 17 mm | 12 mm | –
